Assay results as given in patent US20230270764A1, “COMPOSITION COMPRISING CANNABINOIDS, TERPENES, AND FLAVONOIDS FOR TREATING DEPRESSION” (priority 2020, published 2023).
pIC50: −log10 of the molar value.

What was measured:
BV2 microglial cells = test: α-synuclein-induced TNFα secretion by BV2 microglia cell cultures; format: cell-based, murine
Method: The BV2 cells are cultured at 37° C. in a humidified atmosphere with 5% CO2 in high D-glucose (4.5 g/L) Dulbecco’s modified Eagle’s medium (Sigma, Rehovot, Israel) supplemented with 5% heat-inactivated fetal bovine serum, streptomycin (100 µg/ml), and penicillin (100 units/ml) and sodium pyruvate (1 mM; all from Biological Industries Ltd., Kibbutz Beit Haemek, Israel). 24 hours before experiments with LPS stimulation, the BV2 cells are split into 24 well plates, 2×10^5 cells per well, covered with 1 ml of growth medium and allowed to attach overnight. 24 hr before experiments with α-synuclein, the BV2 cells are split into 96-well plates, 50,000 (5×10^4) cells per well, covered with 200 µl of growth medium and allowed to attach overnight. Cultures of BV2 microglia cells are first treated by an individual cannabinoid, or terpene or flavonoid selected from: Cannabidiol (CBD), Δ-9-tetrahydrocannabinol (THC), Δ-8-tetrahydrocannabinol (THC), cannabigerol (CBG), cannabichromene (CBC), cannabigerolic acid (CBGA), Cannabidiolic acid (CBDA), THC acid (THCA), cannabichromenic Acid (CBCA), Cannabidivarin (CBDV), tetrahydrocannabivarin (THCV), Cannabichromevarin (CBCV), Cannabichromerocin ([…]), Cannabivarin (CBV), Cannabicitran (CBT), Cannabinol (CBN), Cannabicyclol (CBL), Cannabigerorcin (CBGO), Cannabinodiol (CBND), β-caryophyllene, β-elemene, β-myrcene, linalool, α-pinene, β-pinene, eucalyptol, alpha-terpineol, valencene, geraniol (lemonol), bisabolol, nerolidol, ocimene, terpinolene, humulene, α-terpinene, camphene, fenchol, α-phellandrene, Δ3-carene, γ-cardinene, sabinene, limonene, β-amyrin, cycloartenol, cannflavin A, cannflavin B, kaempferol, quercetin, luteolin, apigenin, canniprene, orientin, β-sitosterol, vitexin, isovitexin, and chrysin. Additional cultures of BV2 microglia cells are treated by an individual cannabinoid, with at least one additional cannabinoid, and/or terpene, and/or flavonoid, and/or celecoxib. Additional cultures are exposed to the vehicle of these compounds (cremophor, ethanol and PBS, 1:1:18 (v/v/v)) (FIG. 2A). In some studies, cultures of BV2 microglia cells are treated by a specific whole plant cannabis extract, with or without supplementation with cannabinoid(s), and/or terpene(s) and/or flavonoid(s), and/or celecoxib (FIG. 2B).
For each individual cannabinoid mentioned above, 3-4 concentrations are used, ranging from 0.1 to 10 µM. For ultra-low dose Δ9-THC the concentration used is 0.01 µM. For each individual terpene or flavonoid mentioned above, 3-4 concentrations are used, ranging from 1 to 50 µM. For celecoxib, 3-4 concentrations are used, ranging from 0.1 to 10 µM. Two hours following the treatment, the cultures are exposed to one of the following microglia stimulators: LPS (Sigma L2630; Escherichia coli serotype O111:B4) is dissolved in D-PBS (Sigma, D8537) to a pre-stock concentration of 1 mg/ml, aliquoted and stored at -80° C. Stock solution of LPS at 10 ug/ml is prepared using sterile D-PBS, followed by filtering via 0.22 µm filter membrane, aliquoting and storing in -20° C. LPS is applied into the cell medium at a final concentration of 100 ng/ml. Poly I:C (Sigma, P1530) was first dissolved in sterile, molecular grade water to the concentration of 10 mg/ml (following the manufacturer’s instructions). This stock solution was further diluted to the concentration of 1 mg/ml in sterile PBS, and the aliquots stored in -20 °C. […] To induce oligomerization, α-Synuclein solution is placed for 24 hours on a shaker with agitation of 80 rpm and at 37° C.

LPS-injected mice = test: Body weight change and food consumption in the LPS-induced model of depression; format: in vivo
Source text: Animals were housed 2-3/cage, kept in an air-conditioned room (23+°C) and given ad libitum access to food and water. The mice were kept in a reversed light/dark cycle, with lights off from 7 a.m. to 7 p.m. All experiments were approved by the Hebrew University of Jerusalem Ethics Committee on Animal Care and Use. In preparation for the Sucrose Preference Test, mice were habituated 2-3 times to sucrose drinking, by exposing them overnight to two graduated tubes, one containing water and the other containing sucrose solution (1%, w/v). Water and sucrose consumption were measured, and sucrose preference was computed by dividing the amount of sucrose consumed by drinking (ml sucrose) by the total drinking volume (ml of sucrose + water). One day later, the weight of the mice and the food in their cages was weighed for later analysis of food consumption and body weight changes. Groups of mice were injected intraperitoneally (i.p.) with either vehicle (cremophor, ethanol and PBS, 1:1:18 (v/v/v)) or a cannabinoid-based formulation (by itself or with another cannabinoid, or a terpene or a flavonoid). One hour later, each of these groups was injected with LPS (330 µg/kg). All injections were administered at a dose of 10 ml/kg. Four hours following the LPS injection, mice were tested in the Open-Field Test. In this test, the measured locomotor activity reflects not only motor capacity, but particularly the innate motivation for spatial exploration (which increases the distance travelled) and the anxiety level (which reduces the distance travelled, in general, and particularly the distance and time spent in the center of the open field). Each subject was placed near one of the walls of a white 50 X 50 cm^2 arena with 40 cm high walls. The distance travelled (cm), the velocity of the movement (cm/second), the time spent (seconds), distance travelled (cm) in the center area of the arena, as well as the number of entries from the perimeter area into the center of the arena were automatically measured over a 4-minute period, using EthoVision XT video tracking system and software (Noldus, The Netherlands). Twenty-four hours after the LPS injection, mice were tested in the Social Exploration Test. In this test, the subject was placed in an observation cage containing a small metal wire mesh cage with a conspecific mouse inside it. Social exploration, defined as the time of near contact between the nose of the subject and the juvenile in the small cage was recorded for 4 min, using computerized in-house software. Sucrose preference was assessed, as described above, between 8 to 27 hr post LPS injection. Body weight and weight of the food were measured two hours before the LPS injection, and again after 24 hours, and the change in body weight and food consumption were calculated.
This particular study was conducted in several experimental cohorts, and not all compounds and all measures were studied in all cohort. However, each cohort included a vehicle-treated group; therefore, the scores in each behavioral test were converted to % of mean vehicle-treated group in every individual cohort/experiment. Statistical comparisons were computed using SPSS software and consisted of one-way analyses of variance (ANOVA), followed by post-hoc comparisons with the Student-Newman-Keuls method.

C57BL/6 mice = test: Porsolt forced swim test; format: in vivo; details: CLX 10 mg/kg; CBD 5 mg/kg i.p.
Source text: All experiments were approved by the Hebrew University of Jerusalem Ethics Committee on Animal Care and Use. […] All data are presented as mean ± SEM.

SMILES	secretion of TNFα in cells incubated with α-synuclein aggregates/fibrils (BV2 microglial cells; Example 3, 10 µM)	release of TNFα by microglia incubated with α-synuclein aggregates/fibrils (BV2 microglial cells; Example 8, CBD by itself 1, 2.5 or 5 µM)	pIC50 (BV2 microglial cells; Mus musculus, BV-2, read-out: IC50, α-synuclein-induced TNFα release, Example 8 (FIG. 9B), by itself)	food consumption over 24 hr vs vehicle-treated group (LPS-injected mice; Example 9, male C57BL/6, i.p. 1 h before LPS 330 µg/kg, mg/kg: CBD 30, CBD 30 plus THC 10, cannabinol 10, CBD 30 plus BCP 50)	LPS-induced body weight loss and decrease in food consumption (LPS-injected mice; adult (6-9 months-old) male mice, acute CBD)	food consumption and body weight (LPS-injected mice; adult and young adult female mice, acute CBD, saline or LPS)	food consumption among the LPS-injected groups (LPS-injected mice; adult female mice, acute CBD (#p<0.05))	LPS-induced decreases in body weight and food consumption (LPS-injected mice; young adult (2.5-3 months old) male mice, acute CBD)	LPS-induced body-weight loss (LPS-injected mice; young-adult male mice, CBD 30 mg/kg i.p. 3 consecutive days)	immobility time, each compound by itself (C57BL/6 mice)	food consumption vs Vehicle-treated LPS-injected mice (LPS-injected mice; young-adult female mice, CBDA 1 mg/kg)	body weight reduction (LPS-injected mice; young-adult female mice, CBDA 0.5, 1, 5 mg/kg)	body weight reduction and food consumption (LPS-injected mice; young-adult male mice, CBDA 1, 5 mg/kg, CBD 25 and CBDA 1 mg/kg)
C=C(C)[C@@H]1CCC(C)=C[C@H]1c1c(O)cc(CCCCC)cc1O [CBD, cannabidiol]	reduced	neither CBD (1, 2.5, or 5 µM) nor celecoxib (1 or 2.5 µM) by themselves affected the release of TNFα	5.29	consumed significantly more food	not influenced by CBD administration	None of these parameters was influenced by treatment with CBD	significant difference between the CBD- and vehicle-treated group	None of these parameters was influenced by treatment with CBD	no effects	no significant effects			
C=C(C)[C@@H]1CCC(C)=C[C@H]1c1c(O)cc(CCCCC)c(C(=O)O)c1O [CBDA, Cannabidiolic acid]											significantly increased	no significant difference	no significant differences
